Measurements as given in patent US7998999B2, “Cyclohexyl substituted pyrrolidinones as inhibitors of 11-beta-hydroxysteroid dehydrogenase 1” (Eli Lilly and Company, priority 2006, dated 2011).
pIC50: −log10 of the molar value.

How the values were obtained:
[1] = biological target: recombinant human 11β-HSD type 1 enzyme (Homo sapiens, UniProt P28845); test: 11β-HSD Type 1 Enzyme Assay (NADPH fluorescence); assay type: biochemical; conditions: three hour incubation at room temperature, read-out: Human 11-βHSD1 IC50
Sequence of recombinant human 11β-HSD type 1 enzyme (P28845 whole entry): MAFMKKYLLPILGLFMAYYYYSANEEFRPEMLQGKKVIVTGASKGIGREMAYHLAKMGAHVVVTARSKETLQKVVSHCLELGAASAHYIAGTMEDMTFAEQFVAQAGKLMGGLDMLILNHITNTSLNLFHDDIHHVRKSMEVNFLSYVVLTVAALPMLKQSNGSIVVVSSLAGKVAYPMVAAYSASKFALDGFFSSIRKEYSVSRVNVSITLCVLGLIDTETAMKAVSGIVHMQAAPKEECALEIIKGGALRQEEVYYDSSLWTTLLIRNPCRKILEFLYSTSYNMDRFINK
Experimental: 11β-HSD Type 1 Enzyme Assay
Human 11β-HSD type 1 activity is measured by assaying NADPH production by fluorescence assay. Solid compounds are dissolved in DMSO to a concentration of 10 mM. Twenty microliters of each are then transferred to a column of a 96-well polypropylene Nunc plate where they are further diluted 50-fold followed by subsequent two-fold titration, ten times across the plate with additional DMSO using a Tecan Genesis 200 automated system. Plates are then transferred to a Tecan Freedom 200 system with an attached Tecan Temo 96-well head and an Ultra 384 plate reader. Reagents are supplied in 96-well polypropylene Nunc plates and are dispensed individually into black 96-well Molecular Devices High Efficiency assay plates (40 μL/well capacity) in the following fashion: 9 μL/well of substrate (2.22 mM NADP, 55.5 μM Cortisol, 10 mM Tris, 0.25% Prionex, 0.1% Triton ×100), 3 μL/well of water to compound wells or 3 μL to control and standard wells, 6 μL/well recombinant human 11β-HSD type 1 enzyme, 2 μL/well of compound dilutions. For ultimate calculation of percent inhibition, a series of wells are added that represent assay minimum and maximum: one set containing substrate with 667 μM carbenoxolone (background), and another set containing substrate and enzyme without compound (maximum signal). Final DMSO concentration is 0.5% for all compounds, controls and standards. Plates are then placed on a shaker by the robotic arm of the Tecan for 15 seconds before being covered and stacked for a three hour incubation period at room temperature. Upon completion of this incubation, the Tecan robotic arm removes each plate individually from the stacker and places them in position for addition of 5 μL/well of a 250 μM carbenoxolone solution to stop the enzymatic reaction. Plates are then shaken once more for 15 seconds then placed into an Ultra 384 microplate reader (355EX/460EM) for detection of NADPH fluorescence.

[2] = biological target: T1, 11β-HSD1 in primary human aortic smooth muscle cells (AoSMC) (Homo sapiens, UniProt P28845); test: Human Aortic Smooth Muscle Cell Assay (cortisone to cortisol conversion); assay type: cell-based; conditions: AoSMC induced with hTNFα, 10 μM cortisone, cortisol by time resolved immunoassay
T1 construct: containing 12 ng/mL hTNFα to induce expression of 11β-HSD1; endogenous in cells; host or cells: primary human aortic smooth muscle cells (AoSMC), induced with hTNFα
T1 sequence (P28845 whole entry): as above
Experimental: Human Aortic Smooth Muscle Cell Assay
Primary human aortic smooth muscle cells (AoSMC) are cultured in 5% FBS growth medium to a passage number of 6, then pelleted by centrifugation and resuspended at a density of 9×10^4 cells/mL in 0.5% FBS assay medium containing 12 ng/mL hTNFα to induce expression of 11β-HSD1. Cells are seeded into 96-well tissue culture assay plates at 100 μL/well (9×10^3 cells/well) and incubated for 48 hours at 37° C., 5% CO2. Following induction, cells are incubated for 4 hours at 37° C., 5% CO2 in assay medium containing test compounds then treated with 10 μL/well of 10 μM cortisone solubilized in assay medium, and incubated for 16 hours at 37° C., 5% CO2. Medium from each well is transferred to a plate for subsequent analysis of cortisol using a competitive fluorescence resonance time resolved immunoassay. In solution, an allophycocyanin (APC)-cortisol conjugate and free cortisol analyte compete for binding to a mouse anti-cortisol antibody/Europium (Eu)-anti mouse IgG complex. Higher levels of free cortisol result in diminishing energy transfer from the Europium-IgG to the APC-cortisol complex resulting in less APC fluorescence. Fluorescent intensities for Europium and APC are measured using a LJL Analyst AD. Europium and APC excitation is measured using 360 nm excitation and 615 nm and 650 nm emission filters respectively. Time resolved parameters for Europium were 1000 μs integration time with a 200 μs delay. APC parameters are set at 150 μs integration time with a 50 μs delay. Fluorescent intensities measured for APC are modified by dividing by the Eu fluorescence (APC/Eu). This ratio is then used to determine the unknown cortisol concentration by interpolation using a cortisol standard curve fitted with a 4-parameter logistic equation. These concentrations are then used to determine compound activity by plotting concentration versus % inhibition, fitting with a 4-parameter curve and reporting the IC50.

Row | Compound | pIC50 [1] | pIC50 [2]
1 | 3-(4-Bromo-2-chloro-benzyl)-trans-1-(4-fluoro-cyclohexyl)-pyrrolidin-2-one [Example 10] | 6.60 | 7.48
2 | O=C1[C@H](Cc2c(Cl)cc(-c3ccc(F)cc3)cc2Cl)CCN1C1CCC(F)(F)CC1 [Example 3, (R)-3-(3,5-Dichloro-4′-fluoro-biphenyl-4-ylmethyl)-1-(4,4-difluoro-cyclohexyl)-pyrrolidin-2-one] | 6.44 | 8.02
3 | Cn1cc(-c2cc(Cl)c(C[C@@H]3CCN(C4CCC(F)(F)CC4)C3=O)c(Cl)c2)cn1 [Example 6, (R)-3-[2,6-Dichloro-4-(1-methyl-1H-pyrazol-4-yl)-benzyl]-1-(4,4-difluoro-cyclohexyl)-pyrrolidin-2-one] | 6.52 | 8.04
4 | O=C1C(Cc2ccc(Br)cc2Cl)CCN1[C@H]1CC[C@@H](F)CC1 (stereo partly drawn) [Example 11, 3-(4-Bromo-2-chloro-benzyl)-cis-1-(4-fluoro-cyclohexyl)-pyrrolidin-2-one] | 6.35 | 8.12
5 | O=C1C(Cc2c(Cl)cc(-c3cccnc3)cc2Cl)CCN1[C@H]1CC[C@@H](F)CC1 (stereo partly drawn) [Example 12, 3-(2,6-Dichloro-4-pyridin-3-yl-benzyl)-cis-1-(4-fluoro-cyclohexyl)-pyrrolidin-2-one] | 6.59 | 8.41
